Read-outs that look alike come from different tables or passages of the source.
Legend:
[1] = target: hD2R (D2SR), Gi1 activation (Homo sapiens, UniProt P14416); assay: cell-based; type: cell-based; conditions: for Emax: HEK293, read-out: Gi1 Activation Emax; for Gi1 Activation Emax: 30 min, normalized to quinpirole Emax; for Gi1 Activation Emax / EC50: hD2R in HEK293 cells; for EC50: Gi1 Activation EC50, 30 min
hD2R = assay: Pairwise bias factor calculation; type: cell-based, human; conditions: for Go-protein bias over β-arrestin: bias expressed as fold; for Bias factor GoA−βarrestin / Bias factor Gi1–GoA activation / Bias factor cAMP−βarrestin: logarithmic scale, relative to quinpirole, 30 min data; for Bias factor Gi1–GoA activation: negative = GoA bias
[2] = target: hD2R (D2SR), GoA activation (Homo sapiens, UniProt P14416); assay: cell-based; conditions: for EC50: GoA Activation EC50, 30 min, hD2R in HEK293 cells; for Emax: HEK293, read-out: GoA Activation Emax
[3] = target: hD2R (D2SR), cAMP inhibition (Homo sapiens, UniProt P14416); assay: cell-based; conditions: for Emax: HEK293, read-out: cAMP Inhibition Emax; for EC50: cAMP Inhibition EC50, 30 min, hD2R in HEK293 cells
[4] = target: hD2R (D2SR), β-arrestin 2 recruitment (Homo sapiens, UniProt P14416); assay: cell-based; type: cell-based; conditions: for Emax: HEK293, read-out: βArrestin2 Recruitment Emax
[5] = test system: D2R-expressing dopaminergic neurons in VTA and SNc (GIRK activity); type: cell-based, mouse

Sequence of hD2R (D2SR), GoA activation (P14416 1-414 isoform P14416-2): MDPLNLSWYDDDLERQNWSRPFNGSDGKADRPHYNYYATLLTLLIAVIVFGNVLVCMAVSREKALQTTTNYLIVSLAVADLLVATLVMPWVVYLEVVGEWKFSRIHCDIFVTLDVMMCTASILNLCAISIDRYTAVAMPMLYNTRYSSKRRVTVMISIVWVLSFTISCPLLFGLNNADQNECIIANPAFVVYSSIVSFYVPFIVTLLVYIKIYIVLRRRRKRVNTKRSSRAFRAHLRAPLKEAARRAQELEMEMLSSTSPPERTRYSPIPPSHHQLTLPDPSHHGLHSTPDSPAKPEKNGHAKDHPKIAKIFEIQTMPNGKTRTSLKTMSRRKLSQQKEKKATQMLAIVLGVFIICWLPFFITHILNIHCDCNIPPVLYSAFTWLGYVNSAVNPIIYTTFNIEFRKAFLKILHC
Sequence of hD2R (D2SR), GoA activation (P09471 2-354 partner limits assumed): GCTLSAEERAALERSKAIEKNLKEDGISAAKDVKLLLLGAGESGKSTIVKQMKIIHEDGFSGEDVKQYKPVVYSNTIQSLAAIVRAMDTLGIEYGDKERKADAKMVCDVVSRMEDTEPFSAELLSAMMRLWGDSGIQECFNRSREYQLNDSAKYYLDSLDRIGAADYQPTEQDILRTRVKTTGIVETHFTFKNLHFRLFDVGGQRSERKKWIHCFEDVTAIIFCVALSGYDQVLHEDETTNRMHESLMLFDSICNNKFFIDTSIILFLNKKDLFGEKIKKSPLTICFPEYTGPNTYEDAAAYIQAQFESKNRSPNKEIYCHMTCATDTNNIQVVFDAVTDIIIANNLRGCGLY
Sequence of hD2R (D2SR), GoA activation (P62873 2-340 partner limits assumed): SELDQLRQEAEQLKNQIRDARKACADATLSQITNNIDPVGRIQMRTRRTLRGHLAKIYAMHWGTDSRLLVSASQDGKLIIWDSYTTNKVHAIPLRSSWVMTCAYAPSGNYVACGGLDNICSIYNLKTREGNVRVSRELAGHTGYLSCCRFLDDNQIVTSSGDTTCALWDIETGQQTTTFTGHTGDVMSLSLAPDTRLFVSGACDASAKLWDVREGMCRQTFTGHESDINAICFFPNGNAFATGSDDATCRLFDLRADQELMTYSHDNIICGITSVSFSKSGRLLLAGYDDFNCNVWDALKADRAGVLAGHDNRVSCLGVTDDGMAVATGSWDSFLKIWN
Sequence of hD2R (D2SR), GoA activation (P59768 2-68 partner limits assumed): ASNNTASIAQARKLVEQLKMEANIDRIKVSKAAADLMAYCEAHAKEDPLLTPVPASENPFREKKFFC
Sequence of hD2R (D2SR), Gi1 activation (P14416 1-414 isoform P14416-2): as the sequence (P14416 1-414 isoform P14416-2) above
Sequence of hD2R (D2SR), Gi1 activation (P63096 2-354 partner limits assumed): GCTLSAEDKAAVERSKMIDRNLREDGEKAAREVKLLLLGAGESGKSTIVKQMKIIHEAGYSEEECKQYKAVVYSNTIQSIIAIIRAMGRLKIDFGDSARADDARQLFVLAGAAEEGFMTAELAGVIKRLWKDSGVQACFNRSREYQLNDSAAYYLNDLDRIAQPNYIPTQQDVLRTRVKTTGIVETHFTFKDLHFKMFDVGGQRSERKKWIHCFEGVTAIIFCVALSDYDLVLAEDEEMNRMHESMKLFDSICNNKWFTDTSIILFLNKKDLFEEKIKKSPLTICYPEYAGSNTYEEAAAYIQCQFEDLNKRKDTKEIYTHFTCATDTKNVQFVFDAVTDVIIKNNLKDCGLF
Sequence of hD2R (D2SR), Gi1 activation (P62873 2-340 partner limits assumed): as the sequence (P62873 2-340 partner limits assumed) above
Sequence of hD2R (D2SR), Gi1 activation (P59768 2-68 partner limits assumed): as the sequence (P59768 2-68 partner limits assumed) above
Sequence of hD2R (D2SR), β-arrestin 2 recruitment (P14416 1-414 isoform P14416-2): as the sequence (P14416 1-414 isoform P14416-2) above
Sequence of hD2R (D2SR), β-arrestin 2 recruitment (P32121 whole entry partner): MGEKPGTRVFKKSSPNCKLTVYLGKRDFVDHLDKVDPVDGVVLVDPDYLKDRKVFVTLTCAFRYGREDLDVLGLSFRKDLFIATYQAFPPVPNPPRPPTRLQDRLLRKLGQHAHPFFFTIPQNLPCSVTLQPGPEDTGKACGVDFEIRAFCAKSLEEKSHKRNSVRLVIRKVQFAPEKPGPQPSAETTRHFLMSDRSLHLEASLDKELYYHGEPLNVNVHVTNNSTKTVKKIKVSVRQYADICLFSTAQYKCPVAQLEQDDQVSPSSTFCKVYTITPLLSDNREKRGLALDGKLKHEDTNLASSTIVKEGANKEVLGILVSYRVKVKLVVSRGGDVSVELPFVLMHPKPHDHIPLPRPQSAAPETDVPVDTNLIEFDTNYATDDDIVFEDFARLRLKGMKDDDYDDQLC
Sequence of hD2R (D2SR), cAMP inhibition (P14416 1-414 isoform P14416-2): as the sequence (P14416 1-414 isoform P14416-2) above

Compound	Emax [1] [%]	Go-protein bias over β-arrestin (hD2R) [fold]	Bias factor GoA−βarrestin (hD2R)	Bias factor Gi1–GoA activation (hD2R)	Gi1 Activation Emax [1]	EC50 [1] [nM]	EC50 [2] [nM]	Emax [2] [%]	Emax [3] [%]	EC50 [3] [nM]	βArrestin2 Recruitment Emax ([4]; 30 min, hD2R in HEK293 cells, normalized to quinpirole Emax)	EC50 [4] [nM]	Emax [4] [%]	Bias factor cAMP−βarrestin (hD2R)	ligand-induced change of holding current ([5]; whole cell voltage-clamp, −60 mV, 3 and 30 μM)	ligand-induced change of holding current [5]	effect of D2R antagonist on agonist-induced holding current change [5]
CN(CCCCNC(=O)c1cc2ccccc2[nH]1)[C@@H]1Cc2cccc3[nH]c(=O)n(c23)C1 [Compound 1]	51 ± 4.4	~30	1.51	–0.98													
CC1Cc2ccccc2N1C(=O)c1nc2ccccc2s1 (stereo not shown) [Compound 2, reference compound]	8.1 ± 8.2				low efficacy	39.7 ± 39.7	61.1 ± 48.8	31.9 ± 7	58.5 ± 30.2	22.9 ± 19	low efficacy						
CN(CCCCNC(=O)c1ccc2scnc2c1)[C@@H]1Cc2cccc3[nH]c(=O)n(c23)C1 [Compound 8]	108 ± 7.3		1.21	–0.44	fully efficacious	144 ± 52.6	7.3 ± 3.6	92.1 ± 7.2	95.4 ± 4.7	5.2 ± 1.8		208 ± 173	76.4 ± 20.1	1.05			
CN(CCCCNC(=O)c1nc2ccccc2s1)[C@@H]1Cc2cccc3[nH]c(=O)n(c23)C1 [Compound 9]	85.1 ± 8.6		0.55	0.43		301 ± 147	117 ± 59	75.5 ± 7.8	84 ± 6.2	79.1 ± 31.7		794 ± 711	64.2 ± 25.6	0.56			
CN(C[C@@H]1C[C@H]1CCNC(=O)c1cc2ccccc2[nH]1)[C@@H]1Cc2cccc3[nH]c(=O)n(c23)C1 [Compound 19]	57.6 ± 4.9	> 1000	3.44			129 ± 56.3	1 ± 0.5	74 ± 5.4	60.5 ± 1.5	6 ± 1.1		80.5 ± 35.7	30.5 ± 2.6	1.93			
CN(CC[C@@H]1C[C@H]1CNC(=O)c1cc2ccccc2[nH]1)[C@@H]1Cc2cccc3[nH]c(=O)n(c23)C1 [Compound 20]	72.4 ± 4.6	> 1000	2.50	0.24		184 ± 63.6	103 ± 28.2	80.3 ± 3.8	59.8 ± 1.5	81.1 ± 13.1		208 ± 85.8	26 ± 2.1	1.39			
CN[C@@H]1Cc2cccc3[nH]c(=O)n(c23)C1 [Sumanirole, (R)-5,6-dihydro-5-(methylamino)-4H-imidazo[4,5,1-ij]quinolin-2(1H)-one, reference compound]			0.15	–0.54										–0.10	produced an increase in the holding current		
NCCc1ccc(O)c(O)c1 [dopamine]																produced an increase in the holding current	
CCN1CCCC1CNC(=O)c1cc(S(N)(=O)=O)ccc1OC (stereo not shown) [sulpiride]																	inhibited the change in the holding current induced by either sumanirole or 11
